According to ChEMBL document CHEMBL4699440, “Comprehensive review on the anti-bacterial activity of 1,2,3-triazole hybrids” (Eur J Med Chem, 2019):
≈ marks a conversion by molar mass, not a printed value.

Columns and labels:
Format in all cases: functional
Aspergillus brasiliensis = experiment: Antifungal activity against Aspergillus brasiliensis MTCC 1344 incubated for 7 days by microdilution method; settings: MTCC 1344, 168 h, time 7 day
Escherichia coli [1] = experiment: Potency index, ratio of ciprofloxacin MIC to test compound MIC for antimicrobial activity against Escherichia coli MTCC 1652 incubated for […] by two-fold serial dilution method
Bacillus subtilis [2] = experiment: Potency index, ratio of ciprofloxacin MIC to test compound MIC for antimicrobial activity against Bacillus subtilis MTCC 441 incubated for 24 hrs by two-fold serial dilution method
Candida albicans = experiment: Antifungal activity against Candida albicans MTCC 227 incubated for 2 days by microdilution method; settings: MTCC 227, 48 h, time 2 day
Pseudomonas aeruginosa [3] = experiment: Potency index, ratio of ciprofloxacin MIC to test compound MIC for antimicrobial activity against Pseudomonas aeruginosa MTCC 424 incubated for 24 hrs by two-fold serial dilution method
Pseudomonas aeruginosa [4] = experiment: Antibacterial activity against Pseudomonas aeruginosa MTCC 424 incubated for 24 hrs by two-fold serial dilution method
Staphylococcus aureus [5] = experiment: Antibacterial activity against Staphylococcus aureus MTCC 7443 incubated for 24 hrs by two-fold serial dilution method
Bacillus subtilis [6] = experiment: Antibacterial activity against Bacillus subtilis MTCC 441 incubated for 24 hrs by two-fold serial dilution method
Staphylococcus aureus [7] = experiment: Potency index, ratio of ciprofloxacin MIC to test compound MIC for antimicrobial activity against Staphylococcus aureus MTCC 7443 incubated for 24 hrs by two-fold serial dilution method
Klebsiella aerogenes = experiment: Antibacterial activity against Enterobacter aerogenes ATCC 13048
Enterococcus faecalis = experiment: Antibacterial activity against Enterococcus faecalis ATCC 29212 incubated for 24 hrs by microdilution method
Klebsiella pneumoniae [8] = experiment: Antibacterial activity against Klebsiella pneumoniae 7
Pseudomonas aeruginosa [9] = experiment: Antibacterial activity against Pseudomonas aeruginosa ATCC 27853 incubated for 24 hrs by microdilution method
Bacillus cereus [10] = experiment: Antibacterial activity against Bacillus cereus ATCC 10876 incubated for 24 hrs by microdilution method
[11] = test system: Staphylococcus epidermidis; experiment: Antibacterial activity against Staphylococcus epidermidis incubated for 24 hrs by microdilution method
Staphylococcus aureus [12] = experiment: Antibacterial activity against methicillin-resistant Staphylococcus aureus ATCC 33591
Klebsiella pneumoniae [13] = experiment: Antibacterial activity against Klebsiella pneumoniae ATCC 15380 incubated for 24 hrs by tube dilution method
Bacillus subtilis [14] = experiment: Antibacterial activity against Bacillus subtilis MTCC 441 incubated for 24 hrs by microdilution method
Bacillus subtilis [15] = experiment: Antibacterial activity against Bacillus subtilis RCMB 010067 by broth dilution method
Proteus mirabilis [16] = experiment: Antibacterial activity against Proteus mirabilis ATCC 35659 incubated for 24 hrs by microdilution method
Providencia rettgeri = experiment: Antibacterial activity against Providencia rettgeri ATCC 31052
Staphylococcus aureus [17] = experiment: Antibacterial activity against Staphylococcus aureus 209P JC1 incubated for 20 hrs by agar dilution method
[18] = test system: Staphylococcus epidermidis; experiment: Antibacterial activity against Staphylococcus epidermidis MTCC 6880 by serial dilution method
Pseudomonas aeruginosa [19] = experiment: Antibacterial activity against Pseudomonas aeruginosa RCMB 010043 by broth dilution method
Escherichia coli [20] = experiment: Antibacterial activity against Escherichia coli RCMB 010052 by broth dilution method
Escherichia coli [21] = experiment: Antibacterial activity against Escherichia coli NIHJ JC2 incubated for 20 hrs by agar dilution method
Staphylococcus aureus [22] = experiment: Antibacterial activity against Staphylococcus aureus ATCC 25923 incubated for 24 hrs by microdilution method
Bacillus cereus [23] = experiment: Antibacterial activity against Bacillus cereus by agar dilution method
Citrobacter freundii = experiment: Antibacterial activity against Citrobacter freundii ATCC 43864
Pseudomonas aeruginosa [24] = experiment: Antibacterial activity against Pseudomonas aeruginosa 12 incubated for 20 hrs by agar dilution method
Klebsiella pneumoniae [25] = experiment: Antibacterial activity against Klebsiella pneumonia RCMB 010058 by broth dilution method
Pseudomonas aeruginosa [26] = experiment: Antibacterial activity against Pseudomonas aeruginosa MTCC 424 by serial dilution method
Klebsiella pneumoniae [27] = experiment: Antibacterial activity against Klebsiella pneumoniae ATCC 700603
Enterococcus faecium [28] = experiment: Antibacterial activity against Enterococcus faecium 13-7
Streptococcus pyogenes = experiment: Antibacterial activity against Streptococcus pyogenes ATCC 35552 incubated for 24 hrs by tube dilution method
Pseudomonas aeruginosa [29] = experiment: Antibacterial activity against Pseudomonas aeruginosa ATCC 12454 incubated for 24 hrs by tube dilution method
Escherichia coli [30] = experiment: Antibacterial activity against Escherichia coli ATCC 25922 incubated for 24 hrs by tube dilution method
Pseudomonas aeruginosa [31] = experiment: Antibacterial activity against Pseudomonas aeruginosa ATCC 27853
Staphylococcus aureus [32] = experiment: Antibacterial activity against Staphylococcus aureus by agar dilution method
Bacillus subtilis [33] = experiment: Antibacterial activity against Bacillus subtilis MTCC 441 by serial dilution method
Bacillus cereus [34] = experiment: Antibacterial activity against Bacillus cereus MTCC 430 incubated for 24 hrs by macrodilution tube method
[35] = test system: Acinetobacter calcoaceticus; experiment: Antibacterial activity against Acinetobacter calcoaceticus ATCC 19606
Streptococcus pneumoniae = experiment: Antibacterial activity against Streptococcus pneumoniae RCMB 010010 by broth dilution method
Staphylococcus aureus [36] = experiment: Antibacterial activity against Staphylococcus aureus MTCC 96 incubated for 24 hrs by microdilution method
Klebsiella pneumoniae [37] = experiment: Antibacterial activity against Klebsiella pneumoniae MTCC 618 incubated for 24 hrs by microdilution method
Escherichia coli [38] = experiment: Antibacterial activity against Escherichia coli MTCC […] by serial dilution method
Staphylococcus aureus [39] = experiment: Antibacterial activity against Staphylococcus aureus RCMB 010025 by broth dilution method
Staphylococcus aureus [40] = experiment: Antibacterial activity against Staphylococcus aureus ATCC 25923 incubated for 24 hrs by tube dilution method
Escherichia coli [41] = experiment: Antibacterial activity against Escherichia coli MTCC 1652 incubated for […] by two-fold serial dilution method; settings: time 24 hrs
Staphylococcus aureus [42] = experiment: Antibacterial activity against methicillin-sensitive Staphylococcus aureus ATCC 29213
Morganella morganii = experiment: Antibacterial activity against Morganella morganii ATCC 25830
Proteus vulgaris = experiment: Antibacterial activity against Proteus vulgaris ATCC 29905
Pseudomonas aeruginosa [43] = experiment: Antibacterial activity against Pseudomonas aeruginosa MTCC 741 incubated for 24 hrs by microdilution method
Serratia marcescens = experiment: Antibacterial activity against Serratia marcescens ATCC 21074
Proteus mirabilis [44] = experiment: Antibacterial activity against Proteus mirabilis 13-1
[45] = test system: Staphylococcus epidermidis; experiment: Antibacterial activity against methicillin-resistant Staphylococcus epidermidis 13-3
[46] = test system: Staphylococcus epidermidis; experiment: Antibacterial activity against methicillin-sensitive Staphylococcus epidermidis ATCC 12228
[47] = test system: Stenotrophomonas maltophilia; experiment: Antibacterial activity against Stenotrophomonas maltophilia ATCC 13636
Enterococcus faecium [48] = experiment: Antibacterial activity against Enterococcus faecium ATCC 700221

`O=C(Cn1cc(COc2ccc(OCc3cn(CC(=O)Nc4ccc([N+](=O)[O-])cc4)nn3)cc2)nn1)Nc1ccc([N+](=O)[O-])cc1` gave an MIC (Aspergillus brasiliensis) of 0.0199 µM (≈ 0.0125 µg/mL), a Ratio (Escherichia coli [1]) of 2 and a Ratio (Bacillus subtilis [2]) of 2. For the same compound, the MIC (Candida albicans) was 0.0199 µM (≈ 0.0125 µg/mL), the Ratio (Pseudomonas aeruginosa [3]) was 2 and the MIC (Pseudomonas aeruginosa [4]) was 0.0199 µM. For the same compound, the MIC (Staphylococcus aureus [5]) was 0.0199 µM (≈ 0.0125 µg/mL), the MIC (Bacillus subtilis [6]) was 0.0199 µM and the Ratio (Staphylococcus aureus [7]) was 2.

`O=C(O)c1cn(C2CC2)c2cc(N3CCNCC3)c(F)cc2c1=O` [CIPROFLOXACIN] showed an MIC (Klebsiella aerogenes) of no more than 0.03 µg/mL, an MIC (Enterococcus faecalis) of 1 µg/mL (≈ 3.02 µM) and an MIC (Klebsiella pneumoniae [8]) of no more than 0.03 µg/mL. For the same compound, the MIC (Pseudomonas aeruginosa [9]) was 1 µg/mL (≈ 3.02 µM), the MIC (Bacillus cereus [10]) was 1 µg/mL (≈ 3.02 µM) and the MIC [11] was 0.39 µg/mL (≈ 1.18 µM). The MIC (Staphylococcus aureus [12]) was 0.03 µg/mL (≈ 0.0905 µM), the MIC (Klebsiella pneumoniae [13]) was 5.5 µg/mL (≈ 16.6 µM) and the MIC (Bacillus subtilis [14]) was 0.39 µg/mL (≈ 1.18 µM). For the same compound, the MIC (Bacillus subtilis [15]) was no less than 5 µg/mL, the MIC (Proteus mirabilis [16]) was 1 µg/mL (≈ 3.02 µM) and the MIC (Providencia rettgeri) was no more than 0.03 µg/mL. It also gave an MIC (Staphylococcus aureus [17]) of 0.0063 µg/mL (≈ 0.019 µM), an MIC [18] of 4.7 µM (≈ 1.56 µg/mL) and an MIC (Pseudomonas aeruginosa [19]) of no less than 5 µg/mL. The MIC (Escherichia coli [20]) was no less than 5 µg/mL, the MIC (Escherichia coli [21]) was 0.0063 µg/mL (≈ 0.019 µM) and the MIC (Staphylococcus aureus [22]) was 1 µg/mL (≈ 3.02 µM). The MIC (Bacillus cereus [23]) was 2 µg/mL (≈ 6.04 µM), the MIC (Pseudomonas aeruginosa [4]) was 0.0377 µg/mL and the MIC (Citrobacter freundii) was no more than 0.03 µg/mL. It also gave an MIC (Pseudomonas aeruginosa [24]) of 0.0063 µg/mL (≈ 0.019 µM), an MIC (Klebsiella pneumoniae [25]) of no less than 5 µg/mL and an MIC (Pseudomonas aeruginosa [26]) of 4.7 µM (≈ 1.56 µg/mL). For the same compound, the MIC (Klebsiella pneumoniae [27]) was 0.03 µg/mL (≈ 0.0905 µM), the MIC (Enterococcus faecium [28]) was greater than 128 µg/mL and the MIC (Streptococcus pyogenes) was 5.5 µg/mL (≈ 16.6 µM). For the same compound, the MIC (Pseudomonas aeruginosa [29]) was 5.5 µg/mL (≈ 16.6 µM), the MIC (Escherichia coli [30]) was 5.5 µg/mL (≈ 16.6 µM) and the MIC (Pseudomonas aeruginosa [31]) was 0.03 µg/mL (≈ 0.0905 µM). It also gave an MIC (Staphylococcus aureus [32]) of 2 µg/mL (≈ 6.04 µM), an MIC (Bacillus subtilis [6]) of 0.0377 µg/mL and an MIC (Bacillus subtilis [33]) of 4.7 µM (≈ 1.56 µg/mL). For the same compound, the MIC (Bacillus cereus [34]) was 6.25 µg/mL (≈ 18.9 µM), the MIC [35] was 0.03 µg/mL (≈ 0.0905 µM) and the MIC (Streptococcus pneumoniae) was no less than 5 µg/mL. It also gave an MIC (Staphylococcus aureus [36]) of 0.39 µg/mL (≈ 1.18 µM), an MIC (Klebsiella pneumoniae [37]) of 0.39 µg/mL (≈ 1.18 µM) and an MIC (Escherichia coli [38]) of 4.7 µM (≈ 1.56 µg/mL). For the same compound, the MIC (Staphylococcus aureus [39]) was no less than 5 µg/mL, the MIC (Staphylococcus aureus [40]) was 5.5 µg/mL (≈ 16.6 µM) and the MIC (Escherichia coli [41]) was 37.7 µM (≈ 12.5 µg/mL). The MIC (Staphylococcus aureus [42]) was 0.03 µg/mL (≈ 0.0905 µM), the MIC (Morganella morganii) was no more than 0.03 µg/mL and the MIC (Proteus vulgaris) was no more than 0.03 µg/mL. For the same compound, the MIC (Pseudomonas aeruginosa [43]) was 0.39 µg/mL (≈ 1.18 µM), the MIC (Serratia marcescens) was 0.03 µg/mL (≈ 0.0905 µM) and the MIC (Proteus mirabilis [44]) was no more than 0.03 µg/mL. The MIC [45] was 0.03 µg/mL (≈ 0.0905 µM), the MIC [46] was 0.03 µg/mL (≈ 0.0905 µM) and the MIC [47] was 0.03 µg/mL (≈ 0.0905 µM). It also gave an MIC (Enterococcus faecium [48]) greater than 128 µg/mL.
